Assay: xn = mol fraction of the nth substance listed
Details: for surface tension liquid-gas: Ring tensiometer; for mass density: 101.3 kPa, Liquid

COCCOCCOC [2,5,8-trioxanonane] + O
Details	mass density [kg/m3]	surface tension liquid-gas [mN/m]
298.15 K, x1 = 0.0047	–	49.27
298.15 K, x1 = 0.0141	–	44.11
298.15 K, x1 = 0.0188	1002.55	–
298.15 K, x1 = 0.0279	–	42.26
298.15 K, x1 = 0.0456	–	39.85
298.15 K, x1 = 0.0543	1006.8	–
298.15 K, x1 = 0.0874	–	35.99
298.15 K, x1 = 0.1184	–	31.62
298.15 K, x1 = 0.1289	1002.43	–
298.15 K, x1 = 0.1582	–	30.69
298.15 K, x1 = 0.1903	994.76	–
298.15 K, x1 = 0.2241	–	30.45
298.15 K, x1 = 0.3191	–	29.9
298.15 K, x1 = 0.3195	978.75	–
298.15 K, x1 = 0.4068	970.55	–
298.15 K, x1 = 0.4283	–	28.69
298.15 K, x1 = 0.4993	963.15	–
298.15 K, x1 = 0.5164	–	28.08
298.15 K, x1 = 0.621	955.66	–
298.15 K, x1 = 0.6493	–	27.9
298.15 K, x1 = 0.7181	950.74	–
298.15 K, x1 = 0.7841	–	26.77
298.15 K, x1 = 0.8097	946.27	–
298.15 K, x1 = 0.8737	–	26.29
298.15 K, x1 = 0.9099	942.33	–
298.15 K, x1 = 0.9228	–	25.69
298.15 K, x1 = 0.9551	940.97	–
298.15 K, x1 = 0.9704	–	25.19
298.15 K, x1 = 1	940.01	24.56
308.15 K, x1 = 0.0014	–	53.47
308.15 K, x1 = 0.0038	–	50.51
308.15 K, x1 = 0.0085	–	47.12
308.15 K, x1 = 0.0142	–	44.72
308.15 K, x1 = 0.0188	998.41	–
308.15 K, x1 = 0.0279	–	41.3
308.15 K, x1 = 0.0457	–	38.99
308.15 K, x1 = 0.0543	1001.43	–
308.15 K, x1 = 0.0875	–	33.65
308.15 K, x1 = 0.12	–	32.57
308.15 K, x1 = 0.1289	996.23	–
308.15 K, x1 = 0.1602	–	31.09
308.15 K, x1 = 0.1903	987.3	–
308.15 K, x1 = 0.2265	–	29.75
308.15 K, x1 = 0.3195	970.44	–
308.15 K, x1 = 0.3217	–	29.19
308.15 K, x1 = 0.4068	961.72	–
308.15 K, x1 = 0.4305	–	28.79
308.15 K, x1 = 0.4993	954.06	–
308.15 K, x1 = 0.5179	–	28.41
308.15 K, x1 = 0.621	945.87	–
308.15 K, x1 = 0.6498	–	28.3
308.15 K, x1 = 0.7181	940.7	–
308.15 K, x1 = 0.7831	–	27.7
308.15 K, x1 = 0.8097	936.34	–
308.15 K, x1 = 0.8744	–	27.58
308.15 K, x1 = 0.9099	932.39	–
308.15 K, x1 = 0.9165	–	27.54
308.15 K, x1 = 0.9551	931.05	–
308.15 K, x1 = 0.9645	–	27.43
308.15 K, x1 = 1	930.03	27.65
318.15 K, x1 = 0.0015	–	55.76
318.15 K, x1 = 0.0038	–	51.77
318.15 K, x1 = 0.0081	–	48.33
318.15 K, x1 = 0.0135	–	45.61
318.15 K, x1 = 0.0188	994.3	–
318.15 K, x1 = 0.0269	–	41.95
318.15 K, x1 = 0.0444	–	39.33
318.15 K, x1 = 0.0543	996.25	–
318.15 K, x1 = 0.0857	–	34.62
318.15 K, x1 = 0.1091	–	28.86
318.15 K, x1 = 0.1289	989.1	–
318.15 K, x1 = 0.156	–	26.65
318.15 K, x1 = 0.1903	979.79	–
318.15 K, x1 = 0.2194	–	25.34
318.15 K, x1 = 0.3174	–	24.45
318.15 K, x1 = 0.3195	961.72	–
318.15 K, x1 = 0.4068	952.75	–
318.15 K, x1 = 0.4248	–	24.26
318.15 K, x1 = 0.4993	944.64	–
318.15 K, x1 = 0.511	–	24.18
318.15 K, x1 = 0.621	936.5	–
318.15 K, x1 = 0.6513	–	23.87
318.15 K, x1 = 0.7181	931.28	–
318.15 K, x1 = 0.7915	–	23.64
318.15 K, x1 = 0.8097	926.76	–
318.15 K, x1 = 0.8844	–	23.5
318.15 K, x1 = 0.9099	922.58	–
318.15 K, x1 = 0.9137	–	23.48
318.15 K, x1 = 0.9547	–	23.46
318.15 K, x1 = 0.9551	921.12	–
318.15 K, x1 = 1	919.99	23.44

From the NIST ThermoML archive (doi:10.1021/je100757w)
